Read-outs that look alike come from different tables or passages of the source.
Experiments:
[1] = tested on: cultured human hair follicles; settings: cited from earlier work; for Effect on hair follicle growth in the absence of insulin: IGF-I and IGF-II 0.01-100 ng/ml; for Effect on hair follicle growth in the presence of insulin: 10 micrograms/ml insulin present; for Preventing hair follicles from entering a catagen-like state, compared with insulin / Rate of hair follicle growth compared with 10 micrograms/ml insulin: IGF-I 10 ng/ml, IGF-II 100 ng/ml
[2] = Source text: Discontinue the treatment till it disappears and restart the program. Latisse needs a prescription from a doctor in order to purchase Latisse like you would get any other medication. […] If one develops hypoglycemic symptoms due to any number of reasons, drink a sugar drink, eat a candy, or fruit cocktail.
eyelash hair follicles = assay: Eyelash hair growth / hair follicle transplant after topical application; format: in vivo; settings: insulin alone, no second hypertrichosis agent
Source text: Step 4: Apply selected hair growth therapeutic agent if need be such as minoxidil or prostaglandin derived hair growth promoters which are already approved for hair growth of the eyelashes. […] Apply the clean dressing on the wound if need be.
Step 4: Apply selected hair growth therapeutic agent using PGF 2α, and analogues. Using these hair growing prostaglandins after pretreatment of the eye lids site with insulin results in much more rapid hair growth compared to when applied without insulin.

indolent ulcers = assay: Local insulin on indolent ulcers, wound healing; format: in vivo; settings: insulin spray on indolent ulcers, unpublished data
Source text: We have used insulin for more than a decade to enhance the effectiveness of locally injected therapeutic agents specially cancers with chemotherapeutic agents with remarkable results. Our unpublished data also supports that the insulin spray on indolent ulcers anywhere in the body, including the oral (gums) and nasal cavity. […] Application of insulin soaked cotton swabs (1-3 units in normal saline) after teeth extraction induces rapid healing with reduced pain.

[3] = tested on: MCF-7 human breast cancer cells; settings: MCF-7 cells; cited from earlier work
[4] = in vivo; cited from earlier work

Substance	Effect on hair follicle growth in the absence of insulin [1]	Effect on hair follicle growth in the presence of insulin [1]	Preventing hair follicles from entering a catagen-like state, compared with insulin [1]	Rate of hair follicle growth compared with 10 micrograms/ml insulin [1]	Concentration giving maximum rates of hair follicle growth ([1]; in the absence of insulin)	other results
Growth hormone: growth hormone (somatotropin)	no effect on hair follicle growth or morphology	–	–	–	–	–
IGF-I: insulin-like growth factor 1, a growth hormone believed to work with androgens to initiate and maintain hair growth	stimulated hair follicle growth in a dose-dependent manner	no significant effect on hair follicle growth	more potent than insulin	identical	10 ng/mL	–
IGF-II: Insulin-like growth factor II	stimulated hair follicle growth in a dose-dependent manner	no significant effect on hair follicle growth	more potent than insulin	unable to stimulate hair follicle growth to the same extent as insulin	100 ng/mL	–
Insulin: hormone secreted by beta cells in the islets of Langerhans in the pancreas	–	–	–	–	–	Hypoglycemia ([2]; after application of insulin to the eye lids): none of our cases developed hypoglycemia; Darkening of the eye lids ([2]; insulin alone): did not result in any appreciable darkening of the eye lids; Wound healing, uptake and growth of hair follicle transplant (eyelash hair follicles): enough to facilitate rapid wound healing along with uptake and growth of hair follicle transplant; Wound healing (indolent ulcers): accelerated wound healing; Concentration giving maximum rates of hair follicle growth ([1]; follicles maintained in medium containing insulin): 10 micrograms/ml; Effect of insulin on hair follicle growth ([1]; range of 0.01 to 100 micrograms/ml): stimulated hair follicle growth in a dose-dependent manner; Increase of the cytotoxic effect of methotrexate [3]: up to 10,000 fold
Regular (R) humulin or novolin: Short-acting insulin	–	–	–	–	–	Duration of action [4]: 5 to 8 h; Onset of action [4]: 30 to 60 min; Peak effect [4]: 2 to 5 h

— US20110217260A1, “METHOD OF ENHANCING EYELASH AND EYE BROW HAIR GROWTH” (priority 2010, published 2011)
